Assay results taken from paper PMC9250534, “Synthesis and direct assay of large macrocycle diversities by combinatorial late-stage modification at picomole scale” (Nature Communications, 2022).

biological target: T1, thrombin (Homo sapiens, UniProt P00734); test: Thrombin inhibition screen of crude macrocycle reactions (residual thrombin activity, fluorogenic substrate Z-Gly-Gly-Arg-AMC); format: biochemical; settings: 10 µM macrocycle concentration; crude reactions, Library 1a-l; scaffold AA1-AA2-AA3 combined with 1-16 or '-'
T1 construct: consists of two polypeptide chains of 36 (light chain) and 259 amino acid
In short: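 Residual activity was measured as the AMC release rate after adding 50 μM Z-Gly-Gly-Arg-AMC. This followed a 10-min room-temperature preincubation of 2 nM thrombin with 10 μM single macrocycles in pH 7.4 Tris buffer (0.6% DMSO). Percent inhibition was taken against the mean slope of DMSO controls.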

With O=C(COc1ccccc1)NCCC[C@@H]1NC(=O)c2ccc(cc2)CNC(=O)[C@H](CO)NC(=O)CCSSCCNC1=O [S-B3-D2/13] the “percent residual thrombin activity” value was 119.049%.

same assay, conditions: 10 µM macrocycle concentration; macrocycles containing acid 14; crude reaction; original screen

With O=C1CCSSCCNC(=O)[C@H](CNC(=O)c2ccc(Cl)s2)NC(=O)[C@@H](Cc2ccccc2)NC(=O)C2(CC2)CN1 [X B6 f D3] the “% thrombin activity, Original screen” value was 49.0%.

same assay, conditions: 10 µM macrocycle concentration; macrocycles containing acid 14; crude reaction; replicate reaction and screen

O=C1CCSSCCNC(=O)[C@H](CNC(=O)c2ccc(Cl)s2)NC(=O)[C@@H](Cc2ccccc2)NC(=O)C2(CC2)CN1 [X B6 f D3] was tested, and the “% thrombin activity, Repeat screen” value was 42.0%.

biological target: MDM2 (Homo sapiens, UniProt Q00987); test: MDM2 binding screen of Libraries 3 and 4: displacement of fluorescent probe F-M8 at 750 nM macrocycle; settings: Panel b, Library 3: 63 scaffolds combinatorially acylated with 15 carboxylic acids at 30 picomole scale; displacement of fluorescent peptide probe; macrocycle 750 nM
Sequence (Q00987 whole entry): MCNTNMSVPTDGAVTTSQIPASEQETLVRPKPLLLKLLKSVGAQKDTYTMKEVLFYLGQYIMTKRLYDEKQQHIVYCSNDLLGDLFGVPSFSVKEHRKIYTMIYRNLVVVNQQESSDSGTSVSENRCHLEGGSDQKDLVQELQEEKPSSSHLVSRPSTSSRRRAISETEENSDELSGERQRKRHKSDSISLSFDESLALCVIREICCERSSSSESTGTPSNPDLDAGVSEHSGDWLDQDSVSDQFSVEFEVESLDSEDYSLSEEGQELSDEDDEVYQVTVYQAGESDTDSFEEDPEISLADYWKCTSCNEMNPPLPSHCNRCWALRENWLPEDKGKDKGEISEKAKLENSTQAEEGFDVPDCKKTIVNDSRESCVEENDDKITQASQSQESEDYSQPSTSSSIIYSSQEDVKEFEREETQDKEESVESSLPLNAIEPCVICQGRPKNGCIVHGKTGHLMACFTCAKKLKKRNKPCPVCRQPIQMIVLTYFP
Method: The cyclic peptide scaffolds required for Libraries 3 and 4 were synthesized as described for those used in Library 2. Due to the presence of many N-methylated amino acids which are more difficult to couple, 200 mM HOAt was applied together with HATU. The scaffolds were diluted to 2 mM in DMSO, and 15 nL were transferred using acoustic dispensing, followed by 15 nL DMSO containing carboxylic acids (40 mM, 20 equiv.), HBTU (40 mM) and DABCO (40 mM). After 6 h reaction at room temperature, 370 nL of DMSO was added to each well, followed by 5 μL of 100 mM Tris-Cl pH 7.4 containing 0.01% v/v Tween20, for quenching overnight.

CC(Oc1cccc(Cl)c1)C(=O)NCC1NC(=O)C2CN(CCO2)C(=O)CCSSCCNC(=O)C(Cc2c[nH]c3ccccc23)NC1=O [X-Cop-D-Dap-D-Trp + Acid 113] and CC(Oc1cccc(Cl)c1)C(=O)NC[C@@H]1NC(=O)[C@H]2CCCN(C2)C(=O)CCSSCCNC(=O)[C@H](Cc2c[nH]c3cc(Cl)ccc23)NC1=O (stereo partly drawn) [X-Nip-Dap-Cl-Trp + Acid 113] are the same in “fraction of fluorescent probe displaced” value: 0.008 for the first, 0.008 for the second.

Compared with CN1C(=O)[C@H](CNC(=O)c2ccc(Cl)s2)NC(=O)[C@@H]2CN(CCO2)C(=O)CCSSCCNC(=O)[C@@H]1Cc1c[nH]c2ccccc12 [X-Cop-Dap-NMe-Trp + Acid 14], O=C(C=Cc1ccc(Cl)cc1)NCC1NC(=O)C2CN(CCO2)C(=O)CCSSCCNC(=O)C(Cc2c[nH]c3ccccc23)NC1=O [X-Cop-D-Dap-Trp + Acid 108] is lower in “fraction of fluorescent probe displaced” value: 0.028 for the first, 0.021 for the second.

Compared with Cn1cc(C[C@@H]2NC(=O)CN(CCNC(=O)CCS(=O)(=O)c3ccccc3)C(=O)[C@H]3CCCN(C3)C(=O)CCSSCCNC2=O)c2ccccc21 [X-Nip-N-Aeg-Me-Trp + Acid 114], O=C(CCS(=O)(=O)c1ccccc1)NC[C@@H]1NC(=O)[C@@H]2CN(CCO2)C(=O)CCSSCCNC(=O)[C@H](Cc2cccc3ccccc23)NC1=O [X-Cop-Dap-1-NaI + Acid 114] is higher in “fraction of fluorescent probe displaced” value: 0.00133 for the first, 0.021 for the second.

First: CN1C(=O)[C@@H](CNC(=O)/C=C/c2ccc(OCc3ccccc3)cc2)NC(=O)[C@H]2CCCN(C2)C(=O)CCSSCCNC(=O)[C@@H]1Cc1c[nH]c2ccccc12 [X-Nip-D-Dap-NMe-Trp + Acid 110]
Second: CN1C(=O)[C@H](CNC(=O)c2cccc(Oc3ccccc3)c2)NC(=O)[C@H]2CCCN(C2)C(=O)CCSSCCNC(=O)[C@@H]1Cc1c[nH]c2ccccc12 [X-Nip-Dap-NMe-Trp + Acid 111]
The “fraction of fluorescent probe displaced” value of the first is higher: -0.00533 for the first, -0.019 for the second.

Going from O=C(/C=C/c1ccc2ccccc2c1)NC[C@@H]1NC(=O)[C@H]2CCCN(C2)C(=O)CCSSCCNC(=O)[C@@H](Cc2c[nH]c3ccccc23)NC1=O [X-Nip-Dap-D-Trp + Acid 112] to O=C(NC[C@H]1NC(=O)[C@H]2CCCN(C2)C(=O)CCSSCCNC(=O)[C@@H](Cc2c[nH]c3ccccc23)NC1=O)c1ccc2ccccc2c1 [X-Nip-D-Dap-D-Trp + Acid 107], the “fraction of fluorescent probe displaced” value rises from 0.021 to 0.050.

First: O=C(CCS(=O)(=O)c1ccccc1)NCCN1CC(=O)N[C@@H](Cc2c[nH]c3cc(Cl)ccc23)C(=O)NCCSSCCC(=O)NCC2(CC2)C1=O [X-Amcp-N-Aeg-Cl-Trp + Acid 114]
Second: O=C(/C=C/c1ccc2ccccc2c1)NCCN1CC(=O)N[C@@H](Cc2c[nH]c3cc(Cl)ccc23)C(=O)NCCSSCCC(=O)NCC2(CC2)C1=O [X-Amcp-N-Aeg-Cl-Trp + Acid 112]
The “fraction of fluorescent probe displaced” value of the first is higher: -0.00533 for the first, -0.019 for the second.

First: Cn1cc(C[C@@H]2NC(=O)[C@@H](CNC(=O)c3ccc(Cl)s3)NC(=O)C3(CC3)CNC(=O)CCSSCCNC2=O)c2ccccc21 [X-Amcp-D-Dap-Me-Trp + Acid 14]
Second: Cn1cc(C[C@@H]2NC(=O)[C@@H](CNC(=O)/C=C/c3ccc4ccccc4c3)NC(=O)C3(CC3)CNC(=O)CCSSCCNC2=O)c2ccccc21 [X-Amcp-D-Dap-Me-Trp + Acid 112]
The “fraction of fluorescent probe displaced” value of the first is lower: -0.032 for the first, 0.00133 for the second.

First: O=C1CN(CCNC(=O)c2cccc(Oc3ccccc3)c2)C(=O)[C@H]2CCCN(C2)C(=O)CCSSCCNC(=O)[C@H](Cc2c[nH]c3cc(Cl)ccc23)N1 [X-Nip-N-Aeg-Cl-Trp + Acid 111]
Second: O=C(NC[C@@H]1NC(=O)[C@H]2CCCN(C2)C(=O)CCSSCCNC(=O)[C@H](Cc2c[nH]c3cc(Cl)ccc23)NC1=O)c1ccc2ccccc2c1 [X-Nip-Dap-Cl-Trp + Acid 107]
The “fraction of fluorescent probe displaced” value of the first is lower: -0.00533 for the first, 0.232 for the second.

Going from O=C(/C=C/c1ccc(OCc2ccccc2)cc1)NC[C@@H]1NC(=O)[C@@H]2CN(CCO2)C(=O)CCSSCCNC(=O)[C@H](Cc2c[nH]c3cc(Cl)ccc23)NC1=O [X-Cop-Dap-Cl-Trp + Acid 110] to O=C(C=Cc1ccc(OCc2ccccc2)cc1)NCC1NC(=O)C2CN(CCO2)C(=O)CCSSCCNC(=O)C(Cc2ccc3ccccc3c2)NC1=O [X-Cop-D-Dap-2-Nal + Acid 110], the “fraction of fluorescent probe displaced” value rises from 0.021 to 0.035.

Compared with O=C(NC[C@H]1NC(=O)[C@@H]2CN(CCO2)C(=O)CCSSCCNC(=O)[C@H](Cc2c[nH]c3ccccc23)NC1=O)C1COc2ccccc2O1 (stereo partly drawn) [X-Cop-D-Dap-Trp + Acid 115], O=C1CN(CCNC(=O)C2COc3ccccc3O2)C(=O)[C@@H]2CN(CCO2)C(=O)CCSSCCNC(=O)[C@@H](Cc2c[nH]c3ccccc23)N1 (stereo partly drawn) [X-Cop-N-Aeg-D-Trp + Acid 115] is lower in “fraction of fluorescent probe displaced” value: 0.008 for the first, -0.00533 for the second.

O=C(O)/C=C/c1ccc(Cl)cc1 [Acid 108] and O=C(O)c1cccc(Oc2ccccc2)c1 [Acid 111] are the same in “fraction of fluorescent probe displaced” value: 0.015 for the first, 0.015 for the second.

O=C1CCSSCCNC(=O)[C@@H](Cc2c[nH]c3ccccc23)NC(=O)[C@@H](CNC(=O)c2ccc3ccccc3c2)NC(=O)C2(CC2)CN1 [X-Amcp-D-Dap-D-Trp + Acid 107] and CN1C(=O)CN(CCNC(=O)c2ccc3ccccc3c2)C(=O)C2(CC2)CNC(=O)CCSSCCNC(=O)[C@@H]1Cc1c[nH]c2ccccc12 [X-Amcp-N-Aeg-NMe-Trp + Acid 107] are the same in “fraction of fluorescent probe displaced” value: 0.031 for the first, 0.031 for the second.

Going from O=C(CCS(=O)(=O)c1ccccc1)NC[C@H]1NC(=O)C2(CC2)CNC(=O)CCSSCCNC(=O)[C@H](Cc2ccc3ccccc3c2)NC1=O [X-Amcp-D-Dap-2-Nal + Acid 114] to CN1C(=O)[C@@H](CNC(=O)CCS(=O)(=O)c2ccccc2)NC(=O)C2(CC2)CNC(=O)CCSSCCNC(=O)[C@@H]1Cc1c[nH]c2ccccc12 [X-Amcp-D-Dap-NMe-Trp + Acid 114], the “fraction of fluorescent probe displaced” value rises from -0.00533 to 0.055.

First: O=C(NC[C@H]1NC(=O)[C@H]2CCCN(C2)C(=O)CCSSCCNC(=O)[C@H](Cc2c[nH]c3cc(Cl)ccc23)NC1=O)C1COc2ccccc2O1 (stereo partly drawn) [X-Nip-D-Dap-Cl-Trp + Acid 115]
Second: O=C(/C=C/c1ccc(Cl)cc1)NC[C@H]1NC(=O)[C@H]2CCCN(C2)C(=O)CCSSCCNC(=O)[C@H](Cc2ccc3ccccc3c2)NC1=O [X-Nip-D-Dap-2-Nal + Acid 108]
The “fraction of fluorescent probe displaced” value of the first is lower: -0.012 for the first, 0.021 for the second.

Compared with CN1C(=O)CN(CCNC(=O)c2cccc(Oc3ccccc3)c2)C(=O)C2(CC2)CNC(=O)CCSSCCNC(=O)[C@@H]1Cc1c[nH]c2ccccc12 [X-Amcp-N-Aeg-NMe-Trp + Acid 111], CN1C(=O)CN(CCNC(=O)/C=C/c2ccc(OCc3ccccc3)cc2)C(=O)C2(CC2)CNC(=O)CCSSCCNC(=O)[C@@H]1Cc1c[nH]c2ccccc12 [X-Amcp-N-Aeg-NMe-Trp + Acid 110] is lower in “fraction of fluorescent probe displaced” value: 0.00133 for the first, -0.00533 for the second.

Compared with O=C(/C=C/c1ccc2ccccc2c1)NC[C@H]1NC(=O)[C@@H]2CN(CCO2)C(=O)CCSSCCNC(=O)[C@H](Cc2ccc3ccccc3c2)NC1=O [X-Cop-D-Dap-2-Nal + Acid 112], O=C(O)C1CC1c1ccccc1 (stereo not drawn) [Acid 105] is lower in “fraction of fluorescent probe displaced” value: 0.021 for the first, -0.00844 for the second.

same assay, conditions: Panel c, Library 4: best nine scaffolds and 15 additional carboxylic acids; displacement of fluorescent probe

First: O=C(/C=C/c1ccc(Cl)c(Cl)c1)NC[C@@H]1NC(=O)[C@H]2CCCN(C2)C(=O)CCSSCCNC(=O)[C@H](Cc2c[nH]c3cc(Cl)ccc23)NC1=O [X-Nip-Dap-Cl-Trp + Acid 119]
Second: O=C(/C=C/c1cccc(Cl)c1)NC[C@@H]1NC(=O)[C@H]2CCCN(C2)C(=O)CCSSCCNC(=O)[C@H](Cc2c[nH]c3cc(Cl)ccc23)NC1=O [X-Nip-Dap-Cl-Trp + Acid 121]
The “fraction of fluorescent probe displaced” value of the first is lower: 0.134 for the first, 0.207 for the second.

First: O=C(/C=C/c1cccc(C(F)(F)F)c1)NC[C@@H]1NC(=O)[C@H]2CCCN(C2)C(=O)CCSSCCNC(=O)[C@H](Cc2c[nH]c3cc(Cl)ccc23)NC1=O [X-Nip-Dap-Cl-Trp + Acid 122]
Second: Cn1cc(C[C@@H]2NC(=O)[C@H](CNC(=O)/C=C/c3cccc(C(F)(F)F)c3)NC(=O)[C@H]3CCCN(C3)C(=O)CCSSCCNC2=O)c2ccccc21 [X-Nip-Dap-Me-Trp + Acid 122]
The “fraction of fluorescent probe displaced” value of the first is higher: 0.166 for the first, 0.101 for the second.

Compared with O=C(/C=C/c1ccc(F)cc1)NC[C@@H]1NC(=O)[C@H]2CCCN(C2)C(=O)CCSSCCNC(=O)[C@H](Cc2ccc3ccccc3c2)NC1=O [X-Nip-Dap-2-Nal + Acid 116], CCCOc1ccc(/C=C/C(=O)NC[C@@H]2NC(=O)[C@H]3CCCN(C3)C(=O)CCSSCCNC(=O)[C@H](Cc3ccc4ccccc4c3)NC2=O)cc1 [X-Nip-Dap-2-Nal + Acid 118] is lower in “fraction of fluorescent probe displaced” value: 0.052 for the first, 0.012 for the second.

CC(=Cc1ccccc1)C(=O)O [Acid 123] was tested, and the “fraction of fluorescent probe displaced” value was -0.00464.
